{
  "source": "patent US20110223157A1",
  "about": "“METHODS FOR THE TREATMENT OF NON-HODGKIN'S LYMPHOMAS USING LENALIDOMIDE, AND GENE AND PROTEIN BIOMARKERS AS A PREDICTOR” (priority 2010, published 2011)",
  "type_in_all_cases": "cell-based",
  "key": {"NFκB p65": {"system": "NFκB p65", "assay": "NFκB p65 activity, Active Motif transcription factor assay on nuclear extracts of treated DLBCL cells", "conditions": "2 days; for inhibition at 1 µM / inhibition at 10 µM: read-out: P65 Inhibition (%) mean ± SD", "procedure": "(§1) DLBCL cells were treated with lenalidomide or an IKK1/2 dual inhibitor (used as a positive inhibitor control) for 2 days. NFκB activity was examined with Active Motif transcription factor assay using nuclear extracts from cells following treatment."}, "NFκB p50": {"system": "NFκB p50", "assay": "NFκB p50 activity, Active Motif transcription factor assay on nuclear extracts of treated DLBCL cells", "conditions": "2 days; for inhibition at 1 µM / inhibition at 10 µM: read-out: P50 Inhibition (%) mean ± SD", "procedure": "as §1"}, "DLBCL cell lines": {"system": "DLBCL cell lines", "assay": "Proliferation of DLBCL cells in vitro, 3H-thymidine incorporation", "procedure": "A panel of DLBCL cell lines of various cytogenetic features was tested for their sensitivity to the antiproliferative activity of lenalidomide. Cells were treated with lenalidomide for 5 days at 37° C.; proliferation of cells was determined using ^3H-thymidine incorporation method. Results of 3 independent experiments are shown (mean±SD). […] ABC-subtype cells appear more sensitive to the antiproliferative effect than other subtype cells including GCB-DLBCL and PMBL cells."}, "[1]": {"conditions": "48 h, KARPS-1160p cells (PBML), 1 μM"}, "[2]": {"conditions": "Homo sapiens, OCI-Ly3, 48 h, OCI-Ly3 cells, 1 μM"}, "[3]": {"conditions": "Homo sapiens, OCI-Ly3, 48 h, OCI-Ly3 cells"}, "[4]": {"conditions": "Homo sapiens, OCI-Ly10, 48 h, OCI-Ly10 cells, 1 μM"}, "[5]": {"conditions": "Homo sapiens, OCI-Ly10, 48 h, OCI-Ly10 cells"}, "[6]": {"conditions": "Homo sapiens, TMD8, 48 h, TMD8 cells, 1 μM"}, "[7]": {"conditions": "Homo sapiens, TMD8, 48 h, TMD8 cells"}},
  "note": "Like-named read-outs stand apart in the source and are kept apart here.",
  "data": [
    {"molecule": "Nc1cccc2c1CN(C1CCC(=O)NC1=O)C2=O", "note": "(stereo not drawn) [lenalidomide, 3-(4-amino-1-oxo-1,3-dihydro-isoindol-2-yl)-piperidine-2,6-dione]", "values": [
      {"measurement": "Effect on NFκB p65 activity", "setting": "NFκB p65; 1 μM, U2932 cells, p<0.001", "value": "significantly inhibits"},
      {"measurement": "inhibition at 1 µM", "setting": "NFκB p65; [1]", "value": "5.9 ± 0.49", "unit": "%"},
      {"measurement": "inhibition at 10 µM", "setting": "NFκB p65; 48 h, KARPS-1160p cells (PBML)", "value": "5.4 ± 0.35", "unit": "%"},
      {"measurement": "inhibition at 1 µM", "setting": "NFκB p65; 48 h, RIVA cells, 1 μM", "value": "19.3 ± 15.6", "unit": "%"},
      {"measurement": "inhibition at 10 µM", "setting": "NFκB p65; 48 h, RIVA cells", "value": "41.7 ± 26.8", "unit": "%"},
      {"measurement": "inhibition at 1 µM", "setting": "NFκB p65; 48 h, U2392 cells, 1 μM", "value": "40 ± 3.7", "unit": "%"},
      {"measurement": "inhibition at 10 µM", "setting": "NFκB p65; 48 h, U2392 cells", "value": "47.9 ± 6.2", "unit": "%"},
      {"measurement": "inhibition at 1 µM", "setting": "NFκB p65; [2]", "value": "-17.4 ± 13.4", "unit": "%"},
      {"measurement": "inhibition at 10 µM", "setting": "NFκB p65; [3]", "value": "-15.8 ± 15", "unit": "%"},
      {"measurement": "inhibition at 1 µM", "setting": "NFκB p65; [4]", "value": "27.6 ± 20.7", "unit": "%"},
      {"measurement": "inhibition at 10 µM", "setting": "NFκB p65; [5]", "value": "22 ± 12.2", "unit": "%"},
      {"measurement": "inhibition at 1 µM", "setting": "NFκB p65; [6]", "value": "14.1 ± 9", "unit": "%"},
      {"measurement": "inhibition at 10 µM", "setting": "NFκB p65; [7]", "value": "49.7 ± 32.8", "unit": "%"},
      {"measurement": "Effect on NFκB p50 activity", "setting": "NFκB p50; 1 μM, U2932 cells, p<0.05", "value": "significantly inhibits"},
      {"measurement": "inhibition at 1 µM", "setting": "NFκB p50; [1]", "value": "14.5 ± 0.95", "unit": "%"},
      {"measurement": "inhibition at 10 µM", "setting": "NFκB p50; 48 h, KARPS-1160p cells (PBML)", "value": "16.4 ± 0.28", "unit": "%"},
      {"measurement": "inhibition at 1 µM", "setting": "NFκB p50; 48 h, RIVA cells, 1 μM", "value": "11.1 ± 11.7", "unit": "%"},
      {"measurement": "inhibition at 10 µM", "setting": "NFκB p50; 48 h, RIVA cells", "value": "28.6 ± 21", "unit": "%"},
      {"measurement": "inhibition at 1 µM", "setting": "NFκB p50; 48 h, U2392 cells, 1 μM", "value": "32.5 ± 14.3", "unit": "%"},
      {"measurement": "inhibition at 1 µM", "setting": "NFκB p50; [2]", "value": "-10.3 ± 19.7", "unit": "%"},
      {"measurement": "inhibition at 10 µM", "setting": "NFκB p50; [3]", "value": "-9.5 ± 19.1", "unit": "%"},
      {"measurement": "inhibition at 1 µM", "setting": "NFκB p50; [4]", "value": "22.7 ± 18.8", "unit": "%"},
      {"measurement": "inhibition at 10 µM", "setting": "NFκB p50; [5]", "value": "22.6 ± 14.1", "unit": "%"},
      {"measurement": "inhibition at 1 µM", "setting": "NFκB p50; [6]", "value": "14.4 ± 16.4", "unit": "%"},
      {"measurement": "inhibition at 10 µM", "setting": "NFκB p50; [7]", "value": "48.5 ± 40.2", "unit": "%"},
      {"measurement": "Effect on proliferation", "setting": "DLBCL cell lines; ABC cell lines U2392, RIVA, TMD8 and OCI-Ly10", "value": "significantly inhibits"},
      {"measurement": "Starting concentration of significant (p<0.05) inhibition of proliferation", "setting": "DLBCL cell lines; several DLBCL lines, particularly ABC-subtype Riva, U2932, TMD8, OCI-Ly10, 5 days at 37° C.", "value": "0.1 to 1", "unit": "µM"}
    ]}
  ]
}
